Measured values reported in patent US20260199367A1, “PLK1 DEGRADATION INDUCING COMPOUNDS WITH INCREASED RIGIDITY” (UPPTHERA, INC., priority 2022, published 2026).

What was measured:
Assay type in all cases: cell-based
[1] = system: NCI-H69 (H69) cell line; experiment: Cell viability assay for NCI-H69 cell line; conditions: Homo sapiens, NCI-H69, 120 h, 5 days, EZ-Cytox, 0.46-3000 nM
From the text: (§1) The NCI-H69 (hereafter H69) and NCI-H526 (hereafter H526) cell lines were purchased from Korea Cell Line Bank (KCLB, Seoul, Korea). For cell culture, RPMI 1640 (Gibco, Cat. No. 22400-089; Lot. No. 2537146), FBS (Gibco, Cat. No. 16000-044; Lot. No. 2511328P), Penicillin/Streptomycin (PS) (Gibco, Cat. No. 15140-122; Lot. No. 2441887), 75T cell culture flask (SPL, Cat. No. 71075), 175T cell culture flask (SPL, Cat. No. 71175), 96-well cell culture plate (SPL, Cat. No. 30096), PBS pH 7.4 (Gibco, Cat. No. 10010-023; Lot. No. 2509235), TrypLE™ Express (Gibco, Cat. No. 12605-010; Lot. No. 2323417), Cell Counter (Hematocytometer)(As one, Cat. No. 4-458-01), and 0.4% Trypan Blue Solution (DYNEBIO, Cat. No. CBT3710; Lot. No. 20221111) were used.
(§2) The compounds of Examples were completely dissolved in DMSO (Sigma-Aldrich Cat. No. D2438, Lot. No. RNBL7287) and used in the experiment. 3×10^4 cells were seeded for each well of a 96-well plate (SPL), and the cells were cultured in total volume of 150 μl. Each compound was diluted 3-folds from the highest concentration of 3000 nM to the lowest concentration of 0.46 nM. After treating the compound to each well to make the total volume of 200 μl, it was cultured in a CO2 incubator (Thermo Fisher Science, Cat. No. 4111) for 5 days. Then, after treating EZ-Cytox (DOGEN, Cat.NO. EZ-3000, Lot. No. DLS2308) 20 μl in each well, it was cultured in CO2 incubator for 4 hours. The absorbance of the completely cultured sample was measured by setting the wavelength of a plate reader (BMG Labtech, CLARIOstar Plus) to […], and was measured after shaking for 3 minutes in a plate reader before measurement.
(§3) (A: IC50 is less than 20 nM, B: IC50 is 50 nM or less, C: IC50 is 100 nM or less)

[2] = system: NCI-H526 (H526) cell line; experiment: Cell viability assay for NCI-H526 cell line; conditions: Homo sapiens, NCI-H526, 120 h, 5 days, EZ-Cytox, 0.46-3000 nM
From the text: as §1, §2, §3

[3] = molecular target: T1, PLK1 (Homo sapiens, UniProt P53350); experiment: Luciferase assay for PLK1 in HeLa LgBit (PLK1-HiBit KI) cell line; conditions: released after thymidine block, compound 300 nM, luminescence after 9 hours
T1 construct: endogenous in cells; host or cells: HeLa LgBit (PLK1-HiBit KI): HeLa cells stably expressing LgBit, with CRISPR/Cas9 knock-in of HiBit at the endogenous PLK1 locus
Experimental: A HeLa cell line in which the LgBit vector was transfected and expressed stably was prepared. Then, after constructing gRNA and donor to express the HiBit amino acid sequence behind the C-terminal of the PLK1 gene, which was inherent in the cell, it was inserted into the cell together with a vector capable of expressing CRISPR/Cas9. Only the cells in which the insertion was completed and knock-in had progressed were selected, sub-cultured and used.
The compounds of Examples were completely dissolved in DMSO (Sigma-Aldrich Cat. No. D2438, Lot. No. RNBL5438) and used in the experiment.
In the case of HeLa LgBit (Plk1-HiBit KI), the compounds were treated after being released after thymidine block, and the process was as follows. Thymidine (Sigma-Aldrich Cat. No. T9250-5G) was completely dissolved in ddH2O and used in the experiment. For thymidine block, the products were treated with 2 mM of thymidine and then incubated for 24 hours. For release and chemical treatment, the medium was suctioned and washed with 1×PBS. TrypLE™ was added and incubated in 37° C. CO2 incubator (Thermo Fisher Science, Cat. No. 4111) for 5 mins. Cells neutralized by adding complete media were counted through a counter. For each well of a 96-well culture plate (SPL), 3.3×10^4 cells and a total medium volume of 150 μl were seeded and incubated in a CO2 incubator.
Each cell line was incubated in a CO2 incubator for 18 hours, and Endurazine (Promega, Cat. No. N257B) was added to each well to make up 4% of the total volume. After adding compounds of Examples in a 96-well white plate (SPL) to a concentration of 300 nM, the wavelength of the plate reader (BMG Labtech, CLARIOstar Plus) was set to 470-480 nM, and then the luminescence was tracked in real time.

T1 sequence (P53350 whole entry): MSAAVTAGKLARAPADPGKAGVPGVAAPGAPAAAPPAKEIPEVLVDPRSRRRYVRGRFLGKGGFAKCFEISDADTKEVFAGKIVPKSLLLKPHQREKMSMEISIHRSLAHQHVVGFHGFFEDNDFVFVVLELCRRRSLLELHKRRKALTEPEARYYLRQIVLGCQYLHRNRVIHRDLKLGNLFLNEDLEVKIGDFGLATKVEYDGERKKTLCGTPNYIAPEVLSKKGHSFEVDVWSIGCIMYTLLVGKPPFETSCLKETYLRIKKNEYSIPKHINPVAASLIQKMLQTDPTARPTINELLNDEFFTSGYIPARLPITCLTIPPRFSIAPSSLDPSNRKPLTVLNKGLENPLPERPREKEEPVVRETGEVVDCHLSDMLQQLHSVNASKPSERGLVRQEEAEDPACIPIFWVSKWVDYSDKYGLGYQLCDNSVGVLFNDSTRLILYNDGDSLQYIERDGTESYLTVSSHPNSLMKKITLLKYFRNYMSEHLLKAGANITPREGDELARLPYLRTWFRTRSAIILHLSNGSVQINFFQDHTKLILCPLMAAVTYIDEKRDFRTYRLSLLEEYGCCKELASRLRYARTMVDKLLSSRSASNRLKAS

SMILES	IC50 [1] [nM]	IC50 [2] [nM]	Value (luminescence value, PLK1-HiBit) [3]
CC[C@@H]1C(=O)N(C)c2cnc(Nc3ccc(C(=O)NC4CCC(N5CCN(CCNc6ccc(C7CCC(=O)NC7=O)cc6)CC5)CC4)cc3OC)nc2N1C1CCCC1 (stereo partly drawn) [Compound 1, 4-(((R)-8-cyclopentyl-7-ethyl-5-methyl-6-oxo-5,6,7,8-tetrahydropteridin-2-yl)amino)-N-((1r,4R)-4-(4-(2-((4-(2,6-dioxopiperidin-3-yl)phenyl)amino)ethyl)piperazin-1-yl)cyclohexyl)-3-methoxybenzamide]	< 20	< 20	0.139
CC[C@@H]1C(=O)N(C)c2cnc(Nc3ccc(C(=O)NC4CCC(N5CCC(CNc6ccc(C7CCC(=O)NC7=O)cc6)CC5)CC4)cc3OC)nc2N1C1CCCC1 (stereo partly drawn) [Compound 2, 4-(((R)-8-cyclopentyl-7-ethyl-5-methyl-6-oxo-5,6,7,8-tetrahydropteridin-2-yl)amino)-N-((1r,4R)-4-(4-(((4-(2,6-dioxopiperidin-3-yl)phenyl)amino)methyl)piperidin-1-yl)cyclohexyl)-3-methoxybenzamide]	< 20	< 20	0.129
CC[C@@H]1C(=O)N(C)c2cnc(Nc3ccc(C(=O)NC4CCC(N5CCN(CCCc6ccc(NC7CCC(=O)NC7=O)cc6)CC5)CC4)cc3OC)nc2N1C1CCCC1 (stereo partly drawn) [Compound 3, 4-(((R)-8-cyclopentyl-7-ethyl-5-methyl-6-oxo-5,6,7,8-tetrahydropteridin-2-yl)amino)-N-((1r,4R)-4-(4-(3-(4-((2,6-dioxopiperidin-3-yl)amino)phenyl)propyl)piperazin-1-yl)cyclohexyl)-3-methoxybenzamide]	< 20	< 20	0.253
CC[C@@H]1C(=O)N(C)c2cnc(Nc3ccc(C(=O)NC4CCC(N5CCN(CCc6ccc(NC7CCC(=O)NC7=O)cc6)CC5)CC4)cc3OC)nc2N1C1CCCC1 (stereo partly drawn) [Compound 4, 4-(((R)-8-cyclopentyl-7-ethyl-5-methyl-6-oxo-5,6,7,8-tetrahydropteridin-2-yl)amino)-N-((1r,4R)-4-(4-(4-((2,6-dioxopiperidin-3-yl)amino)phenethyl)piperazin-1-yl)cyclohexyl)-3-methoxybenzamide]	< 20	< 20	0.157
CC[C@@H]1C(=O)N(C)c2cnc(Nc3ccc(C(=O)NC4CCC(N5CCN(CCNc6cccc7c6CN(C6CCC(=O)NC6=O)C7=O)CC5)CC4)cc3OC)nc2N1C1CCCC1 (stereo partly drawn) [Compound 5, 4-(((R)-8-cyclopentyl-7-ethyl-5-methyl-6-oxo-5,6,7,8-tetrahydropteridin-2-yl)amino)-N-((1r,4R)-4-(4-(2-((2-(2,6-dioxopiperidin-3-yl)-1-oxoisoindolin-4-yl)amino)ethyl)piperazin-1-yl)cyclohexyl)-3-methoxybenzamide]	< 20	< 20	0.376
CC[C@@H]1C(=O)N(C)c2cnc(Nc3ccc(C(=O)NC4CCC(N5CCC(CNc6cccc7c6CN(C6CCC(=O)NC6=O)C7=O)CC5)CC4)cc3OC)nc2N1C1CCCC1 (stereo partly drawn) [Compound 6, 4-(((R)-8-cyclopentyl-7-ethyl-5-methyl-6-oxo-5,6,7,8-tetrahydropteridin-2-yl)amino)-N-((1r,4R)-4-(4-(((2-(2,6-dioxopiperidin-3-yl)-1-oxoisoindolin-4-yl)amino)methyl)piperidin-1-yl)cyclohexyl)-3-methoxybenzamide]	≤ 50	< 20	0.286
CC[C@@H]1C(=O)N(C)c2cnc(Nc3ccc(C(=O)NC4CCC(N5CCC(CNCc6ccc(C7CCC(=O)NC7=O)cc6)CC5)CC4)cc3OC)nc2N1C1CCCC1 (stereo partly drawn) [Compound 7, 4-(((R)-8-cyclopentyl-7-ethyl-5-methyl-6-oxo-5,6,7,8-tetrahydropteridin-2-yl)amino)-N-((1r,4R)-4-(4-(((4-(2,6-dioxopiperidin-3-yl)benzyl)amino)methyl)piperidin-1-yl)cyclohexyl)-3-methoxybenzamide]	≤ 50	< 20	0.214
CC[C@@H]1C(=O)N(C)c2cnc(Nc3ccc(C(=O)NC4CCC(N5CCC(NCc6ccc(C7CCC(=O)NC7=O)cc6)CC5)CC4)cc3OC)nc2N1C1CCCC1 (stereo partly drawn) [Compound 8, 4-(((R)-8-cyclopentyl-7-ethyl-5-methyl-6-oxo-5,6,7,8-tetrahydropteridin-2-yl)amino)-N-((1r,4R)-4-(4-((4-(2,6-dioxopiperidin-3-yl)benzyl)amino)piperidin-1-yl)cyclohexyl)-3-methoxybenzamide]	< 20	< 20	0.279
CC[C@@H]1C(=O)N(C)c2cnc(Nc3ccc(C(=O)NC4CCN(C(=O)C(N)CN5CCN(c6cccc7c6C(=O)N(C6CCC(=O)NC6=O)C7=O)CC5)CC4)cc3OC)nc2N1C1CCCC1 (stereo partly drawn) [Compound 9, N-(1-(2-amino-3-(4-(2-(2,6-dioxopiperidin-3-yl)-1,3-dioxoisoindolin-4-yl)piperazin-1-yl)propanoyl)piperidin-4-yl)-4-(((R)-8-cyclopentyl-7-ethyl-5-methyl-6-oxo-5,6,7,8-tetrahydropteridin-2-yl)amino)-3-methoxybenzamide]	≤ 100	< 20	0.377
CC[C@@H]1C(=O)N(C)c2cnc(Nc3ccc(C(=O)NC4CCN(C(=O)C(N)CN5CCN(c6ccc(C7CCC(=O)NC7=O)cc6)CC5)CC4)cc3OC(F)(F)F)nc2N1C1CCCC1 (stereo partly drawn) [Compound 10, N-(1-(2-amino-3-(4-(4-(2,6-dioxopiperidin-3-yl)phenyl)piperazin-1-yl)propanoyl)piperidin-4-yl)-4-(((R)-8-cyclopentyl-7-ethyl-5-methyl-6-oxo-5,6,7,8-tetrahydropteridin-2-yl)amino)-3-(trifluoromethoxy)benzamide]	≤ 100	≤ 50	0.282
CC[C@@H]1C(=O)N(C)c2cnc(Nc3ccc(C(=O)NC4CCN(C(=O)C(N)CN5CCN(c6ccc(C7CCC(=O)NC7=O)cc6)CC5)CC4)cc3OC)nc2N1C1CCCC1 (stereo partly drawn) [Compound 11, N-(1-(2-amino-3-(4-(4-(2,6-dioxopiperidin-3-yl)phenyl)piperazin-1-yl)propanoyl)piperidin-4-yl)-4-(((R)-8-cyclopentyl-7-ethyl-5-methyl-6-oxo-5,6,7,8-tetrahydropteridin-2-yl)amino)-3-methoxybenzamide]	≤ 50	< 20	0.234
CC[C@@H]1C(=O)N(C)c2cnc(Nc3ccc(C(=O)NC4CCC(N5CCC(NCc6cccc7c6CN(C6CCC(=O)NC6=O)C7=O)CC5)CC4)cc3OC)nc2N1C1CCCC1 (stereo partly drawn) [Compound 12, 4-(((R)-8-cyclopentyl-7-ethyl-5-methyl-6-oxo-5,6,7,8-tetrahydropteridin-2-yl)amino)-N-((1r,4R)-4-(4-(((2-(2,6-dioxopiperidin-3-yl)-1-oxoisoindolin-4-yl)methyl)amino)piperidin-1-yl)cyclohexyl)-3-methoxybenzamide]	≤ 100	≤ 50	0.372
